# Key:
# Type in all cases: in vivo
# [1] = test system: crabgrass, Brazil (Brazilian crabgrass, Digitaria horizontalis); experiment: Test F pre-/postemergence: crabgrass, Brazil
# Excerpt: (§1) Seeds of plant species selected from corn (Zea mays), soybean (Glycine max), velvetleaf (Abutilon theophrasti), lambsquarters (Chenopodium album), poinsettia, wild (wild poinsettia, Euphorbia heterophylla), pigweed, palmer (palmer pigweed, Amaranthus palmeri), waterhemp (common waterhemp, Amaranthus rudis), surinam grass (Brachiaria decumbens), crabgrass, Brazil (Brazilian crabgrass, Digitaria horizontalis), panicum, fall (fall panicum Panicum dichotomiflorum), crabgrass, large (large crabgrass, Digitaria sanguinalis), foxtail, giant (giant foxtail, Setaria faberii), foxtail, green (green foxtail Setaria viridis), goosegrass (Eleusine indica), ragweed (common ragweed, Ambrosia elatior), barnyardgrass (Echinochloa crus-galli), sandbur (southern sandbur, Cenchrus echinatus), arrowleaf sida (Sida rhombifolia), ryegrass, Italian (Italian ryegrass, Lolium multiflorum), dayflower, VA (Virginia (VA) dayflower, Commelina virginica), field bindweed (Convolvulus arvensis), cocklebur (common cocklebur, Xanthium strumarium), morningglory (Ipomoea coccinea), nightshade (eastern black nightshade, Solanum ptycanthum), kochia (Kochia scoparia), nutsedge, yellow (yellow nutsedge, Cyperus esculentus), johnsongrass (Sorghum halepense), smartweed (ladysthumb smartweed, Polygonum persicaria), and beggarticks (hairy beggarticks, Bidens pilosa), were planted into a silt loam soil and treated preemergence with test chemicals formulated in a non-phytotoxic solvent mixture which included a surfactant. At the same time, plants selected from these crop and weed species and also pigweed (Amaranthus retroflexus), waterhemp_RES1 (ALS/Triazine resistant common waterhemp, Amaranthus rudis) and waterhemp_RES2 (ALS/HPPD resistant common waterhemp, Amaranthus rudis) were planted in pots containing a planting medium comprising spaghnum peat moss, vermiculite, wetting agent and starter nutrients treated with postemergence applications of some of the test chemicals formulated in the same manner. Plants ranged in height from 2 to 18 cm for postemergence treatments (1- to 4-leaf stage).
# (§2) Treated plants and controls were maintained in a greenhouse for 14 to 21 days, after which time all species were compared to controls and visually evaluated. Plant response ratings, summarized in Table E, are based on a scale of 0 to 100 where 0 is no effect and 100 is complete control. A dash (-) response means no test result.
# [2] = test system: arrowleaf sida (Sida rhombifolia); experiment: Test F pre-/postemergence: arrowleaf sida
# Excerpt: as §1, §2
# [3] = test system: kochia (Kochia scoparia); experiment: Test D pre-/postemergence: kochia
# Excerpt: (§3) Seeds of plant species selected from bluegrass (annual bluegrass, Poa annua), blackgrass (Alopecurus myosuroides), canarygrass (Phalaris minor), chickweed (common chickweed, Stellaria media), galium (catchweed bedstraw, Galium aparine), bromegrass, downy (downy bromegrass, Bromus tectorum), field poppy (Papaver rhoeas), field violet (Viola arvensis), foxtail, green (green foxtail, Setaria viridis), deadnettle (henbit deadnettle, Lamium amplexicaule), ryegrass, Italian (Italian ryegrass, Lolium multiflorum), kochia (Kochia scoparia), lambsquarters (Chenopodium album), oilseed rape (Brassica napus), pigweed (Amaranthus retroflexus), Russian thistle (Salsola iberica), chamomile (scentless chamomile, Matricaria inodora), speedwell (bird's-eye speedwell, Veronica persica), barley, spring (spring barley, Hordeum vulgare), wheat, spring (spring wheat, Triticum aestivum), buckwheat, wild (wild buckwheat, Polygonum convolvulus), mustard, wild (wild mustard, Sinapis arvensis), oat, wild (wild oat, Avena fatua), radish, wild (wild radish, Raphanus raphanistrum), windgrass (Apera spica-venti), barley, winter (winter barley, Hordeum vulgare), and wheat, winter (winter wheat, Triticum aestivum) were planted into a silt loam soil and treated preemergence with test chemicals formulated in a non-phytotoxic solvent mixture which included a surfactant. At the same time, these same crop and weed species were planted in pots containing the planting medium comprising spaghnum peat moss, vermiculite, wetting agent and starter nutrients and treated with postemergence applications of the test chemicals formulated in the same manner. Plants ranged in height from 2 to 18 cm (1- to 4-leaf stage).
# as §2, with “controlled growth environment” for “greenhouse”, “days” for “days,”, “D,” for “E,”
# [4] = test system: radish, wild (wild radish, Raphanus raphanistrum); experiment: Test D pre-/postemergence: radish, wild
# Excerpt: as §3
# as §2, with “controlled growth environment” for “greenhouse”, “days” for “days,”, “D,” for “E,”
# [5] = Postemergence, 8 g ai/ha, scale 0 to 100
# [6] = Postemergence, 16 g ai/ha, scale 0 to 100
# [7] = Postemergence, 31 g ai/ha, scale 0 to 100
# [8] = Postemergence, 62 g ai/ha, scale 0 to 100
# [9] = Postemergence, 125 g ai/ha, scale 0 to 100
# [10] = Postemergence, 250 g ai/ha, scale 0 to 100
# [11] = Preemergence, 31 g ai/ha, scale 0 to 100, 0 no effect, 100 complete control
# [12] = Preemergence, 125 g ai/ha, scale 0 to 100
# [13] = Preemergence, 250 g ai/ha, scale 0 to 100
# [14] = Preemergence, 16 g ai/ha, scale 0 to 100, 0 no effect, 100 complete control
# [15] = Preemergence, 62 g ai/ha, scale 0 to 100
# [16] = Postemergence, 31 g ai/ha, scale 0 to 100 (0 no effect, 100 complete control)
# [17] = Postemergence, 62 g ai/ha, scale 0 to 100 (0 no effect, 100 complete control)
# [18] = Postemergence, 125 g ai/ha, scale 0 to 100, 0 no effect, 100 complete control
Compound,"Plant response rating, Crabgrass, Brazil [1, 7]","Plant response rating, Crabgrass, Brazil [1, 9]","Plant response rating, Arrowleaf Sida [2, 7]","Plant response rating, Arrowleaf Sida [2, 9]","Plant response rating, Crabgrass, Brazil [1, 11]","Plant response rating, Crabgrass, Brazil [1, 12]","Plant response rating, Crabgrass, Brazil [1, 13]","Plant response rating, Arrowleaf Sida [2, 11]","Plant response rating, Arrowleaf Sida [2, 12]","Plant response rating, Arrowleaf Sida [2, 13]","Plant response rating, Crabgrass, Brazil [1, 15]","Plant response rating, Arrowleaf Sida [2, 15]","Plant response rating: Kochia [3, 16]","Plant response rating: Kochia [3, 17]","Plant response rating: Kochia [3, 18]","Plant response rating, Kochia [3, 6]","Plant response rating, Kochia [3, 14]","Plant response rating, Kochia [3, 11]","Plant response rating, Kochia [3, 15]","Plant response rating, Kochia [3, 12]",further results
Cc1nn(-c2ccnc(Cl)c2)nc1Cc1ccnc(C(F)(F)F)c1 [Compound 141],95,95,60,75,,,,,,,,,,,,,,,,,"Plant response rating, Crabgrass, Brazil [1, 5]: 70; Plant response rating, Crabgrass, Brazil [1, 6]: 80; Plant response rating, Crabgrass, Brazil [1, 8]: 95; Plant response rating, Arrowleaf Sida [2, 5]: 40; Plant response rating, Arrowleaf Sida [2, 6]: 50; Plant response rating, Arrowleaf Sida [2, 8]: 70"
CCCc1nn(-c2ccc(F)c(F)c2)nc1Oc1ccnc(C(F)(F)F)c1 [Compound 172],50,70,65,90,100,100,100,30,95,100,,,,,,,,,,,"Plant response rating, Crabgrass, Brazil [1, 10]: 90; Plant response rating, Arrowleaf Sida [2, 10]: 100"
CCc1nn(-c2ccc(F)cc2)nc1Cc1ccnc(C(F)(F)F)c1 [Compound 154],,,,,100,100,100,0,0,0,100,0,,,,,,,,,"Plant response rating, Crabgrass, Brazil [1, 14]: 75; Plant response rating, Arrowleaf Sida [2, 14]: 0"
CCc1nn(-c2ccc(C(F)(F)F)cc2)nc1Cc1ccnc(C(F)(F)F)c1 [Compound 155],,,,,,100,100,,40,75,100,10,80,85,85,70,30,60,65,75,"Plant response rating: Radish, Wild [4, 16]: 95; Plant response rating: Radish, Wild [4, 17]: 95; Plant response rating: Radish, Wild [4, 18]: 100; Plant response rating, Radish, Wild [4, 6]: 85; Plant response rating, Radish, Wild [4, 14]: 100; Plant response rating, Radish, Wild [4, 11]: 95; Plant response rating, Radish, Wild [4, 15]: 100; Plant response rating, Radish, Wild [4, 12]: 100"
Cc1nn(-c2ccc(F)c(C(F)(F)F)c2)nc1Cc1ccnc(C(F)(F)F)c1 [Compound 156],,,,,,,,,,,,,80,95,90,75,10,30,65,80,"Plant response rating: Radish, Wild [4, 16]: 85; Plant response rating: Radish, Wild [4, 17]: 100; Plant response rating: Radish, Wild [4, 18]: 100; Plant response rating, Radish, Wild [4, 6]: 65; Plant response rating, Radish, Wild [4, 14]: 5; Plant response rating, Radish, Wild [4, 11]: 10; Plant response rating, Radish, Wild [4, 15]: 100; Plant response rating, Radish, Wild [4, 12]: 100"

# — patent US9302999B2, “Substituted triazoles as herbicides” (E. I. DU PONT DE NEMOURS AND COMPANY, priority 2012, dated 2016)
